Tests used:
[1] = tested on: hepatic iNKTs; test: Glycolipid antigen-iNKT stimulation in mice, hepatic iNKT cytokine expression by flow cytometry; format: in vivo, C57BL/6 mice; conditions: for IFN-γ MFI relative to PBS: n=2; for iNKT expression of intracellular IL-4 vs PBS / iNKT expression of surface CD107a vs PBS / expression of IFN-γ in iNKTs: acute stimulation, 4 μg intraperitoneal; for expression of IFN-γ in iNKTs: livers harvested at hour 4, PBS control 10.1%
Procedure: FIG. 7: iNKT Response to Glycolipid Antigen Stimulation. Two C57BL/6 mice per group were injected with phosphate-buffered saline (PBS), alpha-galactosyl ceramide (a-GalCer), or C34 at hour 0. At hour 4, mice were euthanized, their livers were excised and hepatic lymphocytes isolated and stained for NK1.1+ TCR-β+ mononuclear single cells, and intracellular IFN-γ was assayed by flow cytometry. The IFN-γ positive gate was drawn based on unstained controls. Representative data shown are from one mouse.
FIGS. 8A-8C: Acute and Chronic cytokine expression following GAg-stimulation of iNKTs. Two C57BL/6 mice per group were injected with 4 μg of C34, alpha galactosyl-ceramide (aGC), or Phosphate-Buffered Saline (PBS), in acute or chronic stimulation groups. Hepatic lymphocytes were then isolated and stained for NK1.1, TCR-β, and interferon-gamma (IFN-γ) with intra- and extracellular staining methods. (FIG. 8A) IFN-γ mean fluorescence intensity (MFI) of iNKTs. (FIG. 8B) CD107a MFI of iNKTs. (FIG. 8C) Interleukin-4 MFI of iNKTs.
Glycolipid antigen-iNKT stimulation experiments. C57/BL6 mice were injected with free glycolipid antigen or phosphate-buffered saline (PBS) intraperitoneally at a dose of 4 μg per injection in “acute” and “chronic” exposure situations. In acute stimulation conditions, intraperitoneal injections were given at hour 0, then at hour 4 mice were sacrificed and livers harvested and processed as above. In chronic stimulation conditions, animals received the 4 μg dose of glycolipid antigen days 0, 4, and 7. Livers were then harvested 4 hours after the final intraperitoneal injection and processed as described above. Hepatic mononuclear cells were extracellularly stained with fluorophore-labeled loaded-CD1d tetramer, anti-NK1.1, anti-CD107a, and then fixed and stained intracellularly with anti-IFN-Y, anti-IL-4, anti-TCR-β using a Fixation/Permeabilization kit (BD) and analyzed on FACSVerse flow cytometer (BD).
Data Analysis. Cytokinc expression analysis: FCS files were analyzed using Flowjo (TreeStar) software. Mean fluorescence intensity (MFI) of IFN-γ CD107a, and IL-4 on iNKT cells was compared between PBS, aGC, and C34-stimulated groups using Graphpad (Prism) and compared using Student's t-test between two Groups (ex: PBS vs aGC), and one-way ANOVA for comparison of PBS, aGC, and C34.

[2] = tested on: patients with advanced solid tumors; conditions: Giaccone et al., 2002; cited from earlier work
[3] = tested on: iNKTs; conditions: Parekh, 2005; cited from earlier work
[4] = tested on: EL4 lymphoma cells; test: 51Cr-release killing assay of EL4 lymphoma cells with murine hepatic lymphocytes or sorted iNKTs; format: cell-based; conditions: for percent specific lysis relative to control: sorted murine iNKTs as effectors, p=0.014 C34 vs control; for percent specific lysis in comparison with control: unsorted hepatic lymphocytes as effectors, 100 ng/mL glycolipid antigen, p=0.0133 C34 vs nothing added
Procedure: FIGS. 9A-9B: iNKT-mediated cytotoxicity with glycolipid antigen (GAg) stimulation. (FIG. 9A) C57BL/6 hepatic lymphocytes (effectors) were co-cultured for 18 hours with ^51Cr-loaded EL4 lymphoma cells (targets) in triplicates at E:T ratios of 2.5:1, 5:1,10:1, 20:1, and 40:1; these cocultures were stimulated with either alpha galactosyl-ceramide (a-GalCer) or C34 at indicated concentrations or left unstimulated (Nothing added). (FIG. 9B) Similar experiments were performed with flow cytometrically sorted murine hepatic iNKTs as effector populations.
^51Cr Killing Assays. EL4 lymphoma cells were used as targets and were labeled with ^51Cr (Perkin-Elmer) at a ratio of 1 μCi per 1×10^6 cells at 37° C. for 1 hour; excess ^51Cr was removed by extensive washing in RPMI media as described previously (Orange et al., 2022). Murine hepatic iNKT-enriched cell populations and flow cytometrically sorted iNKTs were plated in 96-well round-bottom wells. 2×10^5 target cells were then mixed with these iNKTs in each well at designated effector to target ratios with 100 ng/mL of glycolipid antigen in triplicate. After 16 hours, supernatants from each well were transferred to a Deepwell Lumiplate (Perkin Elmer), dried overnight, and then analyzed by a TopCount gamma radiation detector (Perkin Elmer). Spontaneous release was determined by collecting supernatants from cultures of targets alone, while maximum lysis was measured from the supernatants of target cells that were fully lysed with detergent. Percent specific lysis was calculated by the equation: 100× (sample lysis cpm-spontaneously released cpm)/(maximum cpm-spontaneously released cpm), as described previously (Orange et al., 2022).
^51Cr-release killing assays: Percent specific lysis was calculated as described above and triplicate values were analyzed using Graphpad (Prism). Mean values and standard errors of the mean were calculated. Percent specific lysis among the three groups were compared using one-way ANOVA. Significance was set at p value of <0.05.

[5] = acute stimulation protocol, p=0.012 aGC vs PBS, p=0.0034 C34 vs PBS
[6] = chronic stimulation protocol, three intraperitoneal injections over 7 days, p=0.0010 for C34

CCCCCCCCCCCCCCCCCCCCCCCCCC(=O)N[C@@H](CO[C@H]1O[C@H](CO)[C@H](O)[C@H](O)[C@H]1O)[C@H](O)[C@H](O)CCCCCCCCCCCCCC [aGC, α-GalactosylCeramide]
IFN-γ MFI relative to PBS [1, 5]: increased | iNKT expression of intracellular IL-4 vs PBS [1]: No significant differences | iNKT expression of surface CD107a vs PBS [1]: No significant differences | expression of IFN-γ in iNKTs [1]: 30.4 % of iNKTs | IFN-γ MFI relative to PBS [1, 6]: no difference | disease response [2]: without disease response | dose-limiting toxicities [2]: no dose-limiting toxicities | patients with increased serum GM-CSF and TNF-α [2]: 5 of 24 | duration of iNKT anergy following stimulation [3]: up to 6 months | percent specific lysis relative to control [4]: greater | percent specific lysis in comparison with control [4]: higher

phenyl α-GalactosylCeramide [C34]
IFN-γ MFI relative to PBS [1, 5]: increased | iNKT expression of intracellular IL-4 vs PBS [1]: No significant differences | iNKT expression of surface CD107a vs PBS [1]: No significant differences | expression of IFN-γ in iNKTs [1]: 71.4 % of iNKTs | IFN-γ MFI relative to PBS [1, 6]: greater | IFN-γ MFI, chronic vs acute group ([1]; chronic versus acute stimulation with the same glycolipid): not a significant difference | percent specific lysis relative to control [4]: greater | percent specific lysis in comparison with control [4]: higher

From patent publication US20260035479A1, “GD2 BI-SPECIFIC INVARIANT NATURAL KILLER T CELL ENGAGERS AND METHODS OF USE THEREOF” (The Children's Hospital of Philadelphia, priority 2022, published 2026)
